Measured values from patent publication US10294230B2, “3,3-difluoropiperidine carbamate heterocyclic compounds as NR2B NMDA receptor antagonists” (Rugen Holdings (Cayman) Limited, priority 2015, dated 2019).
Where two headings read alike, the source gives them in different places.

How the values were obtained:
NR2B receptor = NR2B receptor (Rattus norvegicus (Rat), UniProt P35439+Q00960); assay: [3H] (E)-N1-(2-methoxybenzyl)-cinnamidine radioligand binding, rat brain membranes; conditions: for Ki: read-out: Ki at the NR2B receptor high affinity site
Procedure: (§1) This example describes NMDA receptor binding assays using two different radioligands, [^3H] […] An established binding assay using the non-selective NMDA receptor ligand [^3H] […] The binding assay method using the NR2B selective receptor ligand [^3H] […] This assay serves as a selective measure of NR2B receptor binding activity in native rat brain receptors. Briefly, the brains of Male Wistar rats were homogenized (Polytron) before centrifugation at 40,000×g for 15 minutes at 4° C. After 2 washes, the final pellet was homogenized and stored at −80° C. The protein concentration was determined by Bradford assay.
[^3H] […] Thus, using [^3H]
(§2) Test compounds were solubilized at 10 mM in DMSO. Then the dilutions were performed with a constant solvent concentration (1% DMSO) in the assay.
(§3) After incubation for 4.5 h at room temperature, the assays were filtered on GF/B filters pretreated with 0.3% (v/v) PEI with a Brandel system for [^3H] […] The experiment was performed in duplicate (n=2).

NMDA receptor = assay: [3H] MK-801 radioligand binding, rat brain membranes; conditions: 2 nM [3H] MK-801
Procedure: as §1, §2, §3

human NR1/NR2B = human NR1/NR2B (Homo sapiens (Human), UniProt Q05586+Q13224); assay: NR2B antagonist activity, Fluo-4 calcium influx in HEK293 cells; assay type: cell-based
Procedure: (§4) HEK293 cell lines stably expressing cloned human NR1/NR2B and NR1/NR2A, respectively, were established according to standard previously described methods (Hansen et al., Comb. Chem High Throughput Screen. 11:304, 2008). Activation of the NR2A or NR2B subtype of NMDA receptor with glutamate as an agonist and glycine co-agonist on these cells results in calcium influx, which can be monitored with fluorescent indicator Fluo-4.
(§5) For experiments, the cells were seeded onto poly-D-lysine-coated 96-well black plates with clear bottom (Corning) at a density of ˜50,000 cells/well. After overnight culture, the growth medium was removed from the wells and the cells were incubated at 37° C. for 60 min in Hanks buffer containing 4 μM fluo-4-AM (Invitrogen) and 0.1% bovine serum albumin (BSA). After dye-loading, the cells were washed three times with Hanks buffer and incubated for 10 min at room temperature with various concentrations of test compounds prepared in Hanks buffer with 0.1% BSA. The cell plates were placed onto FDSS pCell fluorescence reader (Hamamatsu). After 20 sec reading of background fluorescence, agonist glutamate at final 100 μM and co-agonist glycine at final 50 μM were added to the cells to activate the receptor, and the resulting fluorescence changes were recorded and quantified. Based on the changes in fluorescence intensity, the pharmacological effect of test compounds were analyzed and the IC50 values derived from a non-linear least squares fitting of the concentration-dependent response to a standard logistic equation using Prism (Graphpad, Inc): Amplitude=Max Amplitude/(1+(IC50/[antagonist])^n).

CYP2D6 = CYP2D6 (Homo sapiens (Human), UniProt P10635); assay: CYP P450 enzyme inhibition, pooled human liver microsome; assay type: in vitro ADME; conditions: pooled HLM, dextromethorphan 5 μM
Procedure: Those CYP isoforms and their corresponding probe substrates are as follows: CYP1A2 (phenacetin, 30 μM), CYP2C9 (tolutamide, 100 μM), CYP2C19 (S-mephenytoin, 40 μM), CYP2D6 (dextromethorphan, 5 μM) and CYP3A4 (midazolam, 1 μM). All probe substrates were used at concentrations near or below their Kms. For experiment, a reaction mixture of test compound at 10 μM or in serial dilution, CYP probe substrate described above and 0.2 mg/mL pooled HLM in phosphate buffer, pH 7.4 in a final volume of 200 μL was pre-incubated at 37° C. for 10 minutes in triplicate. The reaction was initiated by addition of NADPH at final concentration of 1 mM. The reaction was terminated after 10 minutes (CYP1A2, CYP2D6 and CYP3A4) or 30 minutes (CYP2C9 and CYP2C19) by addition of 100 μL ice-cold acetonitrile with internal standard (IS). The samples were then centrifuged at 13,000 rpm and the supernatants were injected to LC-MS/MS (Agilent Technologies) to quantify the concentration of the specific metabolites of the probe substrates formed by individual CYP450 isoforms. The inhibition ratio is calculated as: (Mt−M0)/Mwater×100% in which Mt and M0 represent the concentrations of the specific probe substrate metabolite, which was formed by individual CYP450 isoform, at the beginning and end of the reaction in the presence of test compound; while Mwater represents the concentration of the specific metabolite at the end of the reaction in the absence of test compound. Test compound concentration-dependent response data experiments performed in triplicate.

human NR1/NR2A = human NR1/NR2A (Homo sapiens (Human), UniProt Q05586+Q12879); assay: NR2A antagonist activity, Fluo-4 calcium influx in HEK293 cells; assay type: cell-based; conditions: Table 2.1, glutamate 100 μM, glycine 50 μM
Procedure: as §4, §5

hERG channel = hERG channel (Homo sapiens (Human), UniProt Q12809); assay: hERG channel inhibition, whole cell patch clamp in HEK293 cells; assay type: cell-based; conditions: for IC50: HEK293, whole cell patch clamp
Procedure: The assay was performed on hERG channel stably expressed in HEK293 cells. The cells were cultured at 37° C. in a humidified CO2 incubator in the growth medium consisting of DMEM, 10% fetal bovine serum and antibiotics. Prior to the assay, the cells were seeded onto a 12 mm PDL-coated glass coverslip and cultured in a 35 mm Petri dish. After 16 to 40 hr culture, the cover slip was transferred into the chamber of OctaFlow perfusion system (ALA Instrument) and under a constant flow of extracellular solution (140 mM NaCl, 4 mM KCl, 1 mM MgCl2, 2 mM CaCl2, 10 mM HEPES, 10 mM D-glucose, pH 7.35, osmolarity 290). Whole cell patch clamping was performed with a glass micropipette filled with intracellular solution (120 mM KCl, 1.75 mM MgCl2, 5.4 mM CaCl2, 10 mM HEPES, 10 mM EGTA, and 4 mM ATP-K2, PH 7.2, osmolarity 310). Giga-seal was maintained during the test. The voltage control and current measurement were carried out using Axon amplifier 700B, Digidata 1440A and CLAMPEX10 software (Molecular Devices). Whole-cell hERG currents were recorded following the Petroski protocol: the cell was held at −80 mV, and the voltage step jumped from −80 to 30 mV and stay for 2 sec with a 20 ms prepulse at −40 mV. After depolarization, the voltage was decreased to −40 mV and stay for 2 sec, and returned back to −80 mV. Test compound was applied by quartz capillary tubes tip (200 μm inner diameter), and the flow rate was controlled at 2-3 ml/min with OctaFlow perfusion system. Different concentrations of the compound were applied to the cells for 5 min and the hERG current was measured three times before, during and after compound treatment. The data were analyzed using Clampfit 10 software (Molecular Devices) to generate IC50 values.

[1] = system: electroconvulsive threshold (tonic convulsions); assay: Electroconvulsive Threshold Test (ECT); assay type: in vivo, rats; conditions: rats
Procedure: Test compound E1-8.2 was administered as the free base.
Rats were administered ECS (rectangular current: 0.6 ms pulse width, 1.5 s duration, 200 Hz) via earclip electrodes connected to a constant current shock generator (Ugo Basile: type 7801). Test compounds were administered by oral gavage (p.o.) 1 hour before the test at a dose volume of 5 mL/kg.
Treatment groups of 20 rats were exposed to ECS as follows: The first animal was exposed to 30 mA of ECS. […] (increases of 5 mA) until the first tonic convulsion was observed. Once the first tonic convulsion was observed, the intensity of ECS was decreased by 2 mA for the next animal and then decreased or increased by 2 mA from animal to animal depending on whether the previous animal convulsed or not. If the first animal did convulse (tonic convulsions) within 5 seconds, animal no2 is exposed to 25 mA, etc. . . . (decreases of 5 mA) until the absence of tonic convulsions was observed. At this point, the intensity of ECS was increased by 2 mA for the next animal and then decreased or increased by 2 mA from animal to animal depending on whether the previous animal convulsed or not. The minimum current intensity applied is 5 mA and the maximum 95 mA. The first 5 animals serve to approach threshold current and were not included in the analysis. The results are presented as the mean current intensity administered to the final 15 animals of a group. The test was performed blind. A positive percent change indicates an anticonvulsant effect. A negative percent change indicates a proconvulsant effect. The test substance was evaluated at 4 doses, typically using 0.5% dimethylsulfoxide, 4% hydroxypropyl-b-cyclodextrin water as a vehicle, and administered p.o. 60 minutes before ECS, and compared with a vehicle control group. Diazepam (16 mg/kg p.o.), administered under the same experimental conditions, was used as reference substance. The experiment included 6 groups. Data with the test substance was analyzed by comparing treated groups with vehicle control using one-way ANOVA followed by Dunnett's t tests.

[2] = system: KCl-induced cortical spreading depression; assay: Cortical Spreading Depression (CSD), aura phase of migraine model; assay type: in vivo; conditions: rats
Procedure: The cortical spreading depression model is utilized to investigate whether treatment with compounds of the present invention affect electrophysiological and hemodynamic events in a rat model of migraine.
Rats were anesthetized with 5% isoflurane (in 70% N2O and 30% O2; flow 300 ml/min) and placed in a stereotactic frame. […] The rectal temperature was maintained at 37.0±1.0° C. with a homeothermic blanket system. The skin was opened by a medial incision and retracted laterally. Three burr holes were drilled under saline cooling over the right hemisphere at the following coordinates (mm from bregma): (1) posterior 4.5, lateral, 2.0 (occipital cortex): KCl application site; (2) posterior 0.5, lateral 2.0 (parietal cortex): LDF recording site; (3) anterior 2, lateral 2 (frontal cortex): DC potential recording site. A laser-Doppler flow probe (Oxyflow, Oxford Optronics, UK) to monitor CBF and an invasive Ag/AgCl electrode for measuring direct current (DC) potential shifts were placed in the parietal and frontal cortex burr holes on the intact dura and in the cortex, respectively. The laser-Doppler flow probe was positioned in an area free of large pial and dural vessels to minimize a large-vessel contribution to the signal. For the DC-potential measurement, a reference electrode was fixed in the neck. Dura overlying the occipital cortex was gently removed and care was taken to avoid bleeding. After surgical preparation, the cortex was allowed to recover for 15 minutes under saline irrigation. A cotton ball (2 mm diameter) soaked with 1M KCl was placed on the pial surface and kept moist by placing 5 μl of KCl solution every 15 minutes. Test compound or vehicle was administered ten (10) minutes prior to CSD initiation. […] The number of KCl-induced CSDs was counted for 2 hours. The CBF and DC-potentials were monitored continuously starting from 5 minutes before KCl exposure.
Test compound E1-1.2 was administered as a mesylate salt (mpk based on molecular weight of the mesylate salt).
The data was collected in Windaq acquisition software (Dataq Instruments, USA) at 20 kHz. The raw data was analyzed in Clampfit program (Axon Instruments, USA). The signals were low pass filtered (cut off range 5-10000 Hz) that CSD episodes in DC and CBF could be confirmed. The following parameters were analyzed: i) the number, duration and amplitude of DC-potentials, and ii) the number and amplitude of CBF events.
Doses were given as milligram per kilogram (mpk). […] Bars represent mean±Standard Error of Mean (SEM), and differences were considered to be statistically significant at the P<0.05 level (n=8, * different from vehicle group). Statistical analysis was performed using StatsDirect statistical software. Differences between groups were analyzed by using 1-way ANOVA and Dunnett's post hoc test.

[3] = Table 2.1, HEK293 human NR1/NR2B, glutamate 100 μM, glycine 50 μM
[4] = E1-1.2 at various doses, MK-801 1.25 mg/kg

Chain of CYP2D6 (P10635 whole entry): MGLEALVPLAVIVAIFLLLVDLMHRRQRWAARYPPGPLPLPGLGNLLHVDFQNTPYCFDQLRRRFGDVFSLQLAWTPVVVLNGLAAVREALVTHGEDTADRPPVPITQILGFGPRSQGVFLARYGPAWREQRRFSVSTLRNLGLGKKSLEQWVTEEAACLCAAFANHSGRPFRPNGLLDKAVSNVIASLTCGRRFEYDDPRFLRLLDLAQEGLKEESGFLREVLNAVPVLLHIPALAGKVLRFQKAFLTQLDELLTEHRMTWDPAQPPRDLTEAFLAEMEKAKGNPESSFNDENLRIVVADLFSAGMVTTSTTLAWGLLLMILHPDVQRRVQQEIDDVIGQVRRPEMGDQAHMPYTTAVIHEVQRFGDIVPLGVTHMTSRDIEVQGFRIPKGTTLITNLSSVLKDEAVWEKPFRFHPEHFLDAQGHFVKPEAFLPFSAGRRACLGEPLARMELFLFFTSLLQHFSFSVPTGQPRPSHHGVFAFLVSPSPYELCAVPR
Chain of NR2B receptor (Q00960 27-1482, other chains not shown): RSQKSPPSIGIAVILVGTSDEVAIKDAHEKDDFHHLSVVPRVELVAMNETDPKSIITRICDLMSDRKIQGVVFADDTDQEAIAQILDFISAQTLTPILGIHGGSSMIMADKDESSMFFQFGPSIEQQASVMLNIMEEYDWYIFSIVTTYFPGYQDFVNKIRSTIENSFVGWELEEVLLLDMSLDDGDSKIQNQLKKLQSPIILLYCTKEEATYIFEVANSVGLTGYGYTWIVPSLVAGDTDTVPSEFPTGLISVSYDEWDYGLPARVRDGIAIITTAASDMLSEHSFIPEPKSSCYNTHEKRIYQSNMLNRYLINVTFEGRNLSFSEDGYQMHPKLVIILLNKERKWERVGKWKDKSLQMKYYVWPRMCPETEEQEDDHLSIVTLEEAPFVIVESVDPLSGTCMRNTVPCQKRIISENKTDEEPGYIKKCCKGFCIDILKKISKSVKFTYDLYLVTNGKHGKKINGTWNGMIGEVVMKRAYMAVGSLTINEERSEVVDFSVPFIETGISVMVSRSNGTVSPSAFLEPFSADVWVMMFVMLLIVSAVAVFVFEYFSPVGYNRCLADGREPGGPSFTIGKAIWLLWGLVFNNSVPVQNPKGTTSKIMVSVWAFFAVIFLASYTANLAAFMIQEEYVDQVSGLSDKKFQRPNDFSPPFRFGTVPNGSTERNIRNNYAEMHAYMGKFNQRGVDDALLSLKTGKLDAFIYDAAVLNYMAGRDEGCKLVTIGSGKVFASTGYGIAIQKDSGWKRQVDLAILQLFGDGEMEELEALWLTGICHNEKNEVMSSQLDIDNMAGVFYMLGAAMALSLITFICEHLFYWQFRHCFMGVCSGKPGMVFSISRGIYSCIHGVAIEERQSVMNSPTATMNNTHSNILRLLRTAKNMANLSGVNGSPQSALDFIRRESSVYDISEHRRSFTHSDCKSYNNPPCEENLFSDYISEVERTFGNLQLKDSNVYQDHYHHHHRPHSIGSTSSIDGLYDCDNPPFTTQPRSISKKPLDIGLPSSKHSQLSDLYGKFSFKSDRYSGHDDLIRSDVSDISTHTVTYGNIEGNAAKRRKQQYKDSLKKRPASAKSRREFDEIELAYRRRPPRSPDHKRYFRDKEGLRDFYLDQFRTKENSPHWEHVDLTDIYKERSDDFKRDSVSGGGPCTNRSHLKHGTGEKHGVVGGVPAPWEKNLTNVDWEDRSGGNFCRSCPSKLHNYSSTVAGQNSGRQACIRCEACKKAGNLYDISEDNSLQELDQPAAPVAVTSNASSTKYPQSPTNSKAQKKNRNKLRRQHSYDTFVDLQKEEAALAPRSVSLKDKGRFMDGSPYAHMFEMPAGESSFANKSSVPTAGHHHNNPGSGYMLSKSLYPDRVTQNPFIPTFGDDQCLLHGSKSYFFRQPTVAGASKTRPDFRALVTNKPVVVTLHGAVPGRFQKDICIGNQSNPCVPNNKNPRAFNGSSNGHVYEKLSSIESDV
Chain of human NR1/NR2B (Q13224 27-1484, other chains not shown): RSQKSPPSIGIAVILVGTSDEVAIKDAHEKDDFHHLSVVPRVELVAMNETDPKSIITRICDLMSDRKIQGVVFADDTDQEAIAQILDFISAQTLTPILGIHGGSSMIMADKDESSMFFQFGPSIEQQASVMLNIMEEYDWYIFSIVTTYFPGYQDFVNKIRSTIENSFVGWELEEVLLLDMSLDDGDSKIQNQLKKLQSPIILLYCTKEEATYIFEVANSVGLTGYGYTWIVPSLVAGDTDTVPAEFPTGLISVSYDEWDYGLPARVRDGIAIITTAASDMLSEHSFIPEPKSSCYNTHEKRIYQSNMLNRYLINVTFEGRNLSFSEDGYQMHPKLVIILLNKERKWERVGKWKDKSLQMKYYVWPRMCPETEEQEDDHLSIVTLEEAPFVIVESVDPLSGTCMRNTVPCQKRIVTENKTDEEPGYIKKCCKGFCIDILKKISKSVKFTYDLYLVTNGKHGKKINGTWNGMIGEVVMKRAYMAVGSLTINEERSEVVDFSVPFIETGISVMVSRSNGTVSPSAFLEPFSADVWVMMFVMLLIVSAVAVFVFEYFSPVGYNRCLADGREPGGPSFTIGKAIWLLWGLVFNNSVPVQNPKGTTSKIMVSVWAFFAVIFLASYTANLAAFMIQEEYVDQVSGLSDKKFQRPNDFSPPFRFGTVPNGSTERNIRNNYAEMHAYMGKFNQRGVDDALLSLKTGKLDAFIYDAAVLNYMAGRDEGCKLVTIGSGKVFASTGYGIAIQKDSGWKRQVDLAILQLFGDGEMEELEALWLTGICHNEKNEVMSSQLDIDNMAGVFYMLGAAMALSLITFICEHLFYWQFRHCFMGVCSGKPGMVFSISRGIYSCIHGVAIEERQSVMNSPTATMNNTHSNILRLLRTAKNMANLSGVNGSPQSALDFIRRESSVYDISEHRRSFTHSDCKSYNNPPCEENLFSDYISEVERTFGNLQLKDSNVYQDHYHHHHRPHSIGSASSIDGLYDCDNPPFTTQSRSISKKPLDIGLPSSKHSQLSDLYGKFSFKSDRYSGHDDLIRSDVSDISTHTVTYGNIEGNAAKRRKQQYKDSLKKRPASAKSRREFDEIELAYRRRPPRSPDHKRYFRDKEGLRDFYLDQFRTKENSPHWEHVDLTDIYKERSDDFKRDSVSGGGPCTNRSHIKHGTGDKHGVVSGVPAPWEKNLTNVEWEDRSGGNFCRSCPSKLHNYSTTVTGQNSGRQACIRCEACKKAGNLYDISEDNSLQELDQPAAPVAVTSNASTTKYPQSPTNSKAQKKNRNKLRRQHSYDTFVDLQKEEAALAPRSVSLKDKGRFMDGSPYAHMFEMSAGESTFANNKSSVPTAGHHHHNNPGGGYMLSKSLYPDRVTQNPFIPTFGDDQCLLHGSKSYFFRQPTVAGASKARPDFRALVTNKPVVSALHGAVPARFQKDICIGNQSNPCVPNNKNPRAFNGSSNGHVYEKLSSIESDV
Chain of hERG channel (Q12809 whole entry): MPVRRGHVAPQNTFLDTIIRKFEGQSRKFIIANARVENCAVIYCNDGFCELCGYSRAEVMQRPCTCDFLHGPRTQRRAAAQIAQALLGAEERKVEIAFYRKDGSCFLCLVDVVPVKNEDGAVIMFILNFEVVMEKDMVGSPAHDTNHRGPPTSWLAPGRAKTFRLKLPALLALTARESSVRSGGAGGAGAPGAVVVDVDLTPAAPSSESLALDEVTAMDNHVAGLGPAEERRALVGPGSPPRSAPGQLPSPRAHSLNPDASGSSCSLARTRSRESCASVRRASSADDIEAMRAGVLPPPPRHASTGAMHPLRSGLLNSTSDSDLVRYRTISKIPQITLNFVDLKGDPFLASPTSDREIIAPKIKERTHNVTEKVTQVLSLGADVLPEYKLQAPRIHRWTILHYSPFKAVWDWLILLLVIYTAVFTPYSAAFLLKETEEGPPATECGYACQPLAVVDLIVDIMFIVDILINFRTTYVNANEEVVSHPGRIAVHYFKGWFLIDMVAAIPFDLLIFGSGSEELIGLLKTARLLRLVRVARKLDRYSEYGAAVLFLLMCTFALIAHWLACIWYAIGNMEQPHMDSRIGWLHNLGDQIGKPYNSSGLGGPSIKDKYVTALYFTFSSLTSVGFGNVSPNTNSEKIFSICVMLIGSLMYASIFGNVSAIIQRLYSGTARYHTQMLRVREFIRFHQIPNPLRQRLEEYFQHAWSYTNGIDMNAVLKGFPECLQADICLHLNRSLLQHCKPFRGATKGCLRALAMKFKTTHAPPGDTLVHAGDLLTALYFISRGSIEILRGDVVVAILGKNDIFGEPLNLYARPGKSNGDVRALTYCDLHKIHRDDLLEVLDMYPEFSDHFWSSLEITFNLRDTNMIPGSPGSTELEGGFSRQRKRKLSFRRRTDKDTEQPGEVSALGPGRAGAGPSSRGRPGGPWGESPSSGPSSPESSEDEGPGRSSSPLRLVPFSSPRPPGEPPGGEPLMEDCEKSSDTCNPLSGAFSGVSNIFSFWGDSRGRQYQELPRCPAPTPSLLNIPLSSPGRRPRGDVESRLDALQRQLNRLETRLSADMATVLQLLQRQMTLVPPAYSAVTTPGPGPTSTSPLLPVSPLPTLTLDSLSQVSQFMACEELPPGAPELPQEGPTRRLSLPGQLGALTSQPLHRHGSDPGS

| Compound | displacement of [3H] (E)-N1-(2-methoxybenzyl)-cinnamidine at the NR2B receptor high affinity site (NR2B receptor; rat brain membranes) [%] | partial effect on [3H] MK-801 binding (NMDA receptor) [%] | IC50 (human NR1/NR2B; [3]) [nM] | IC50 (human NR1/NR2B; Table 2.2) [nM] | IC50 (human NR1/NR2B; Table 2.3) [nM] | CYP2D6 @ 10 μM (%) (CYP2D6) | hERG @ 10 μM (%) (hERG channel) | further results |
| --- | --- | --- | --- | --- | --- | --- | --- | --- |
| COc1ccccc1CNC(=N)/C=C/c1ccccc1 [(E)-N1-(2-methoxybenzyl)-cinnamidine, reference compound] |  |  |  |  |  |  |  | Ki (NR2B receptor; rat brain membranes, [3H] (E)-N1-(2-methoxybenzyl)-cinnamidine): 0.18 nM |
| CCc1ccc(COC(=O)N2CC[C@H](CNc3nccn4cnnc34)C(F)(F)C2)cc1 [Compound E1-1.5, R-4-ethylbenzyl 4-(([1,2,4]triazolo[4,3-a]pyrazin-8-ylamino)methyl)-3,3-difluoropiperidine-1-carboxylate] | 97 | 48 |  |  |  |  |  |  |
| Cc1ccc(COC(=O)N2CC[C@H](CNc3cncc4nncn34)C(F)(F)C2)cc1 [Compound E1-2.2, R-4-methylbenzyl 4-(([1,2,4]triazolo[4,3-a]pyrazin-5-ylamino)methyl)-3,3-difluoropiperidine-1-carboxylate] |  |  | 10.4 | 10.4 | 10.4 | 18 | 32 | IC50 (human NR1/NR2A): > 10000 nM |
| Cc1ccc(COC(=O)N2CC[C@H](CNc3ncc4cn[nH]c4n3)C(F)(F)C2)cc1 [Compound E1-8.2, (+)-R-4-methylbenzyl-4-((1H-pyrazolo[3,4-d]pyrimidin-6-ylamino)methyl)-3,3-difluoropiperidine-1-carboxylate] | 95 | 33 | 17 | 17 | 17 | 83 | 57 | electroconvulsive threshold, pro-/anticonvulsant activity ([1]; 0.5 and 2 mpk p.o., free base): modest proconvulsant activity; electroconvulsive threshold, pro-/anticonvulsant activity ([1]; 10 and 20 mpk p.o., free base): anticonvulsant activity; IC50 (CYP2D6): 5900 nM; IC50 (hERG channel): 6800 nM |
| Cc1ccc(COC(=O)N2CC[C@H](CNc3nc4ccccn4n3)C(F)(F)C2)cc1 [Compound E1-9.2, (+)-R-4-methylbenzyl 4-(([1,2,4]triazolo[1,5-a]pyridin-2-ylamino)methyl)-3,3-difluoropiperidine-1-carboxylate] | 97 | 34 | 48.2 | 48.2 | 48.2 | 14 | 38 | Ki (NR2B receptor): 11.3 nM |
| Cc1ccc(COC(=O)N2CC[C@H](CNc3ncccn3)C(F)(F)C2)cc1 [Compound E1-22.2, (+)-R-4-methylbenzyl 3,3-difluoro-4-((pyrimidin-2-ylamino)methyl)-piperidine-1-carboxylate] |  |  |  |  |  |  |  | IC50 (hERG channel): > 10000 nM |
| Cc1ccc(COC(=O)N2CC[C@@H](CNc3nccn4cnnc34)C(F)(F)C2)cc1 [Compound E2-1.2, (−)-S-4-methylbenzyl 4-(([1,2,4]triazolo[4,3-a]pyrazin-8-ylamino)methyl)-3,3-difluoropiperidine-1-carboxylate] | 98 | 36 | 156 | 156 | 156 |  | 22 | Ki (NR2B receptor): 74.3 nM; IC50 (human NR1/NR2A): > 10000 nM |
| FC(F)(F)c1ccc(C(F)(F)CN2CCC(Nc3ncnc4[nH]ncc34)CC2)cc1 [LX-1, reference compound] |  |  |  |  |  | 93 |  |  |
| CN1C(=O)CN=C(c2ccccc2)c2cc(Cl)ccc21 [diazepam, reference compound] |  |  |  |  |  |  |  | electroconvulsive threshold, pro-/anticonvulsant activity ([1]; 16 mpk p.o.): expected anticonvulsant activity |
| Cn1c(=O)c2[nH]cnc2n(C)c1=O [theophylline, reference compound] |  |  |  |  |  |  |  | electroconvulsive threshold, pro-/anticonvulsant activity ([1]; 128 mpk p.o.): expected proconvulsant activity |
| MK-801 [reference compound] |  |  |  |  |  |  |  | number of CBF events vs vehicle ([2]; E1-1.2 at 10 mg/kg, MK-801 at 1.25 mg/kg): decreased; amplitude of DC potentials vs vehicle [2, 4]: not statistically different; duration of DC potentials vs vehicle [2, 4]: increased |
